# Test results from the Kinase Knowledgebase extract (Sharma et al. 2016).
# Target: PIK3CG (human) (UniProt P48736)
# Experiment: Assessment of PIK3CG Kinase Activity
# Chain of PIK3CG (human) (P48736 whole entry, looked up): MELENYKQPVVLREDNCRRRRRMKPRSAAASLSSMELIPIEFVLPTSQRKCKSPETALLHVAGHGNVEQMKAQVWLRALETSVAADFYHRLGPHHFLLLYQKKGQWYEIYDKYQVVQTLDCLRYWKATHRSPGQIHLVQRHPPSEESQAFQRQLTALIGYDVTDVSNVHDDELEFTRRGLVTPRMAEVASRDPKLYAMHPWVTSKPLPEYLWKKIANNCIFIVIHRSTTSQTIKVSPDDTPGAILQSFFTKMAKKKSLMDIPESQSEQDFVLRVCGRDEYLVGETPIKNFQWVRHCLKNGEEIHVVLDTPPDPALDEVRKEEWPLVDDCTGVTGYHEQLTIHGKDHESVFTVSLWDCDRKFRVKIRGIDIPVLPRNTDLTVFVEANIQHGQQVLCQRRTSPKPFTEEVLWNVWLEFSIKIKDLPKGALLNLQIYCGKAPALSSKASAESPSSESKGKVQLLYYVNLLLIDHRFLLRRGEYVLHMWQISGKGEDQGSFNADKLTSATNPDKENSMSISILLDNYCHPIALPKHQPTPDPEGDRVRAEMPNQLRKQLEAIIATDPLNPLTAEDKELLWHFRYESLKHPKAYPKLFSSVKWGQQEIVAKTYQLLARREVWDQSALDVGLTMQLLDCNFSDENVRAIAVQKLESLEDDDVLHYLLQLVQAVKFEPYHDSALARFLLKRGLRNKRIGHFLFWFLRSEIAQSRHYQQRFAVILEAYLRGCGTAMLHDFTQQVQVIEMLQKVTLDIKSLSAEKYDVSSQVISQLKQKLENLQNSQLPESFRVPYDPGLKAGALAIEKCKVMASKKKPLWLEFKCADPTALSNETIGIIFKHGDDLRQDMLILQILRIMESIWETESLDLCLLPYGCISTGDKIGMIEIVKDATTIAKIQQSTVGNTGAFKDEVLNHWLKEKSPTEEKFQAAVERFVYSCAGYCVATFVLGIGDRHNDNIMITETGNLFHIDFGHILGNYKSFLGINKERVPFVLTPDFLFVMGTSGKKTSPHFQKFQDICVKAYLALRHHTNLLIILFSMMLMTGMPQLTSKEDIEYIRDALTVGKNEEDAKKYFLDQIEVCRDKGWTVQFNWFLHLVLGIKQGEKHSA
row,IC50,Structure (SMILES)
1,< 800 nM,CC(=O)Nc1nc2c(s1)-c1nc(-c3ccc(C)cc3)ncc1CC2
2,< 800 nM,CC(=O)Nc1nc2c(s1)-c1c(c([C@@H]3CCCO3)nn1-c1ccccc1Cl)CC2
3,< 800 nM,CC(=O)Nc1nc2c(s1)-c1cc([N+](=O)[O-])ccc1CC2
4,< 800 nM,CC(=O)Nc1nc2c(s1)-c1c(cnn1-c1cc(F)ccc1C)CC2
5,< 800 nM,CC(=O)Nc1nc2c(s1)-c1c(c([C@H]3CCCO3)nn1-c1ccccc1Br)CC2
6,< 800 nM,CC(=O)Nc1nc2c(s1)-c1c(cnn1-c1ccccc1)C2
7,< 800 nM,CC(=O)Nc1nc2c(s1)-c1c(cnn1-c1ccc(C(=O)NCCCC(N)=O)cc1Cl)CC2
8,< 800 nM,CC(=O)Nc1nc2c(s1)-c1c(c(C(=O)N[C@@H]3CCOC3=O)nn1-c1ccccc1)CC2
9,< 800 nM,COC(=O)Nc1nn(-c2ccccc2Cl)c2c1CCc1nc(NC(C)=O)sc1-2
10,< 800 nM,CC(=O)Nc1nc2c(s1)-c1c(cnn1-c1ccc(CC(=O)NCC(=O)N(C)C)cc1)CC2
11,< 800 nM,CC(=O)Nc1nc2c(s1)-c1c(cnn1-c1ccc(C(=O)N3CCN(NC(=O)c4ccc(F)cc4)CC3)cc1)CC2
12,< 800 nM,CC(=O)Nc1nc2c(s1)-c1c(c(-c3ccco3)nn1-c1ccccc1)CC2
13,< 800 nM,O=C(CNC[C@H](O)[C@@H](O)[C@H](O)[C@H](O)CO)Nc1nc2c(s1)-c1c(cnn1-c1ccccc1)CC2
14,< 800 nM,CC(=O)Nc1nc2c(s1)-c1c(cnn1-c1ccc(C(=O)N3CCC(O)CC3)cc1)CC2
15,< 800 nM,CC(=O)Nc1nc2c(s1)-c1c(cnn1-c1ccc(C(=O)NC(C)CO)cc1)CC2 (stereo not given)
16,< 800 nM,CC(=O)Nc1nc2c(s1)-c1c(c(C(=O)N(C)CCO)nn1-c1ccccc1)CC2
17,< 800 nM,CC(=O)Nc1nc2c(s1)-c1c(cnn1-c1ccc(C(=O)N3CCC(N4CCCCC4)CC3)cc1Cl)CC2
18,< 800 nM,CC(=O)Nc1nc2c(s1)-c1c(cnn1-c1cccc(C)c1)C2

row,IC50,Structure (SMILES)
1,< 800 nM,CC(=O)Nc1nc2c(s1)-c1c(cnn1-c1ccc(C(=O)N[C@H]3CC[C@@H](N4CCCC4)CC3)cc1)CC2
2,< 800 nM,CC(=O)Nc1nc2c(s1)-c1c(cnn1-c1ccc(C(=O)N3CCCC(=O)CC3)cc1)CC2
3,< 800 nM,CC(=O)Nc1nc2c(s1)-c1c(cnn1-c1ccc(C(=O)N[C@@H](CC(=O)O)C(N)=O)cc1Cl)CC2
4,< 800 nM,CC(=O)Nc1nc2c(s1)-c1c(c(-c3ccoc3)nn1-c1ccccc1Cl)CC2
5,< 800 nM,CC(=O)Nc1nc2c(s1)-c1c(cnn1-c1ccc(S(=O)(=O)N(C)C)cc1)CC2
6,< 800 nM,O=C(Nc1nc2c(s1)-c1c(cnn1-c1ccccc1)C2)N1CCCCC1
7,< 800 nM,CC(=O)Nc1nc2c(s1)-c1c(cnn1-c1ccc(C(=O)N3CCN(c4ccncc4)CC3)cc1)CC2
8,< 800 nM,CN(C)CCNC(=O)Nc1nc2c(s1)-c1c(cnn1-c1ccccc1Cl)C2
9,< 800 nM,CC(=O)Nc1nc2c(s1)-c1c(cnn1-c1ccc(C(=O)N[C@H]3CC[C@@H](N4CCN(C)CC4)CC3)cc1)CC2
10,< 800 nM,CC(=O)Nc1nc2c(s1)-c1c(cnn1-c1ccc(F)cc1F)CC2
11,< 800 nM,CC(=O)Nc1nc2c(s1)-c1c(cnn1-c1ccc(CC(=O)N3CCCC(=O)CC3)cc1)CC2
12,< 800 nM,CC(=O)Nc1nc2c(s1)-c1c(cnn1-c1ccc(C(=O)N[C@H](Cc3cnc[nH]3)C(N)=O)cc1Cl)CC2
13,< 800 nM,COc1cc(OC)cc(-c2ncc3c(n2)-c2sc(NC(C)=O)nc2CC3)c1
14,< 800 nM,CC(=O)Nc1nc2c(s1)-c1c(c(C(C)C)nn1-c1ccc(C(=O)N(C)C3CCN(C)CC3)cc1Cl)CC2
15,< 800 nM,CC(=O)Nc1nc2c(s1)-c1c(cnn1-c1ccc(C(=O)N[C@@H](Cc3c[nH]cn3)C(N)=O)cc1Cl)CC2
16,< 800 nM,CN(C)C(=O)Nc1nc2c(s1)-c1nc(N(C)C)ncc1CC2
17,< 800 nM,CC(=O)Nc1nc2c(s1)-c1c(cnn1-c1ccc(CC(=O)NCC3OCCO3)cc1)CC2

# The next lines start with the compound.
row,Structure (SMILES),IC50
1,CC=Cn1ncc2c1-c1sc(NC(C)=O)nc1CC2,< 800 nM
2,CC(=O)Nc1nc2c(s1)-c1nc(N(C)CCCN(C)C)ncc1CC2,< 800 nM
3,CC(=O)Nc1nc2c(s1)-c1c(cnn1-c1ccc(C(=O)NCc3ccccn3)cc1)CC2,< 800 nM
4,CC(=O)Nc1nc2c(s1)-c1nn(-c3ccccc3Br)c(-c3ccco3)c1CC2,< 800 nM
5,CC(=O)Nc1nc2c(s1)-c1c(cnn1-c1cccc(N3C4CCC3CC(O)C4)c1)CC2 (stereo not given),< 800 nM
6,CC(=O)Nc1nc2c(s1)-c1c(c(C(C)C)nn1-c1ccccc1C(F)(F)F)CC2,< 800 nM
7,CC(=O)Nc1nc2c(s1)-c1c(cnn1-c1ccc(C(=O)NCC3CC3)cc1)CC2,< 800 nM
8,CC(=O)Nc1nc2c(s1)-c1c(cnn1-c1ccc(C(=O)NCCN(C)C)cc1)CC2,< 800 nM
9,CC(=O)Nc1nc2c(s1)-c1nc(-c3ccccc3Cl)ncc1C2,< 800 nM
10,CCn1ncc2c1-c1sc(NC(C)=O)nc1CC2,< 800 nM
11,CS(=O)(=O)c1cccc(Nc2nc3c(s2)-c2c(cnn2-c2ccccc2)CC3)c1,< 800 nM
12,O=C(Nc1nc2c(s1)-c1nc(-c3ccccc3)ncc1CC2)N1CCOCC1,< 800 nM
13,Nc1nc2c(s1)-c1c(cnn1-c1ccc([N+](=O)[O-])cc1)CC2,< 800 nM
14,CC(=O)Nc1nc2c(s1)-c1c(cnn1-c1cc(O)cc(Cl)c1)CC2,< 800 nM
15,O=C(Nc1nc2c(s1)-c1nc(-c3ccccc3)ncc1CC2)N1CCCCC1,< 800 nM
16,CC(=O)Nc1nc2c(s1)-c1c(cnn1-c1cccc(C(F)(F)F)c1)CC2,< 800 nM
17,CC(=O)Nc1nc2c(s1)-c1c(c(C(=O)NCCO)nn1-c1ccccc1Cl)CC2,< 800 nM
18,CC(=O)Nc1nc2c(s1)-c1c(cnn1-c1ccc(CC(=O)N3CCN(c4ccncc4)CC3)cc1)CC2,< 800 nM

row,Structure (SMILES),IC50
1,CC(=O)Nc1nc2c(s1)-c1c(cnn1-c1ccc(C(=O)NC(C)(C)CN3CCCCC3)cc1)CC2,< 800 nM
2,CC(=O)Nc1nc2c(s1)-c1c(cnn1-c1ccc(CC(=O)NCc3cccc(C(N)=O)c3)cc1)CC2,< 800 nM
3,CC(=O)Nc1nc2c(s1)-c1c(cnn1-c1ccc(CC(=O)NCCC3CCCN3C)cc1)CC2 (stereo not given),< 800 nM
4,CNC(=O)Nc1nc2c(s1)-c1c(cnn1-c1ccccc1Cl)C2,< 800 nM
5,COc1ccccc1-n1nc(-c2ccccc2)c2c1-c1sc(NC(C)=O)nc1CC2,< 800 nM
6,CC(=O)Nc1nc2c(s1)-c1c(cnn1-c1ccccc1Cl)C2,< 800 nM
7,CC(=O)Nc1nc2c(s1)-c1c(cnn1-c1ccc(C(=O)O)cc1Cl)CC2,< 800 nM
8,CC(=O)Nc1nc2c(s1)-c1c(cnn1-c1ccc(CC(=O)N3CCS(=O)(=O)CC3)cc1)CC2,< 800 nM
9,CC(=O)Nc1nc2c(s1)-c1c(cnn1-c1ccc(C(=O)NC3CCC(=O)O3)cc1)CC2 (stereo not given),< 800 nM
10,CC(=O)Nc1nc2c(s1)-c1c(cnn1-c1ccc(C(=O)N3CCC[C@H]3C(N)=O)cc1)CC2,< 800 nM
11,CC(=O)Nc1nc2c(s1)-c1c(cnn1-c1cccc(Br)c1)CC2,< 800 nM
12,COCc1nn(-c2ccc(C(=O)N(C)C3CCN(C)CC3)cc2Cl)c2c1CCc1nc(NC(C)=O)sc1-2,< 800 nM
13,CCN1CCCC1CNCC(=O)Nc1nc2c(s1)-c1c(cnn1-c1ccccc1)CC2 (stereo not given),< 800 nM
14,CC(=O)Nc1nc2c(s1)-c1c(cnn1-c1ccc(C(=O)NCCCN3CCOCC3)cc1)CC2,< 800 nM
15,CC(=O)Nc1nc2c(s1)-c1c(cnn1-c1ccc(C(=O)O)cc1)CC2,< 800 nM
16,CC(=O)Nc1nc2c(s1)-c1c(cnn1-c1ccc(C(=O)N3CCC(CO)CC3)cc1)CC2,< 800 nM
17,CN(C)CCCC(=O)Nc1nc2c(s1)-c1c(cnn1-c1ccccc1Cl)C2,< 800 nM
